Assay [1] concerns Dunning R-3327 AT-2.1 prostate tumor. Put plainly: inhibition of growth of Dunning R-3327 AT-2.1 prostate tumor in adult male Copenhagen rats. The assay is classed as in vivo, rat. As to conditions: 10 mg/kg/day s.c. The source says:
The AT-2 tumor is a highly anaplastic cell line derived from the original slow-growing androgen-dependent Dunning R-3327 H rat prostate tumor (Issacs et al., Prostate 9:261-281, 1986). The AT-2 tumor model has been used to characterize other potential anti-prostatic cancer agents including linomide (Ichikawa et al., Cancer Research 52:3022-3028, 1992) and suramin (Morton et al., Prostate 17:327-336, 1990) which is undergoing evaluation in clinical trials for androgen-independentprostate cancer (Eisenberger et al., J. Natl. Can. Inst. 85: 611-621, 1993).
Experimental Protocol: Twenty-four inbred male Copenhagen rats were inoculated subcutaneously in the flank with 1×10^6 viable AT-2.1 tumor cells. All animals were allowed to develop tumors of approximately 2.7 cm^3 in size (approximately 14 days) before being randomized into three groups of 8 animals each. Group 1 received daily subcutaneous injections of vehicle alone (1 ml/kg body weight). […] All animals had their tumor sizes evaluated for a period of 16 days. Tumor volume was calculated using the formula (1×w^2)×0.5.

For a further assay, the system named is Tsu-Pr1. Put plainly: growth inhibition of Tsu-Pr1 prostate cancer cells (calcein fluorescence). The assay is classed as cell-based. As to conditions: Homo sapiens, TSU-Pr1, 72 h; 3 days incubation; read-out: Tsu-Pr1 IC50. The method, then: Throughout the experiment the Tsu-Pr1 and Du-Pro1 cells were maintained in RPMI 1640 medium (GIBCO) containing 10% fetal bovine serum (Hyclone), 2 mM glutamine, 100 U/ml penicillin, and 100 μg/ml streptomycin. The PC-3 cells were maintained in Ham's F12K medium (Irvine Scientific) containing 10% fetal bovine serum (Hyclone), 2 mM glutamine, 100 U/ml penicillin, and 100 μg/ml streptomycin. All cell lines were maintained at 37° C. in a humidified atmosphere containing 5% CO2. The DU-145 cells were maintained in minimal essential medium (Gibco), containing 10% fetal bovine serum (Hyclone), 2 mM glutamine, and no antibiotics.
Tests for growth inhibition by the candidate compounds were conducted by the following procedure. In each well of a 96-well plate (Falcon) were placed 2,500 cells in 0.1 ml of medium. The cultures were incubated overnight after which a 0.1 ml aliquot of culture medium was added to each well. […] Other control wells received medium without any K-252a derivative compounds. Incubation was continued for three days. On day three the number of cells in each well was measured using a calcein fluorescence assay (Bozyczko-Coyne et al. J. Neurosci. Meth. 50, 205-216 (1993)).
Calcein AM (Molecular Probes, Eugene, Oreg.), an analog of the viable dye fluorescein diacetate, is taken up by cells and cleaved intracellularly to fluorescent salts that are retained by intact membranes of viable cells. This method thus provides a reliable and quantitative measurement of cell survival. Calcein AM was diluted 2× in Dulbeccos phosphate buffered saline (D-PBS) to 2× the final assay concentration (6 μM) and 100 μl was added to culture wells containing 100 μl of medium. The plates were then incubated for 1 hour at 37° C. Cells were then washed 4 times with D-PBS to remove excess calcein not taken up by cells. The plate was read using a Millipore plate reading fluorimeter (Cytofluor 2350) at emission=485 nm and excitation=538 nm. After subtraction of blank values (wells containing medium but no cells), relative fluorescent values reflect a quantitative measurement of cell survival.
The number of cells in the wells containing functional derivatives was compared to the number of cells in the control wells. The concentration which inhibited cell growth by 50% was calculated and is referred to as the "IC50 ".

As a reminder, the IC50 is the midpoint of a concentration-inhibition curve. With `COC1(CO)CC2OC1(C)n1c3ccccc3c3c4c(c5c6ccccc6n2c5c31)C(=O)NC4` (stereo not shown) [Compound I-19], the “inhibiting growth of AT-2.1 tumors” value in assay [1] (approximately) is reported as 50-60%. Also, the “Tumor volume Day 0” value in assay [1] (vehicle 2.73 ± 0.50) is given as 2.62 ± 0.53 cm^3. The “Tumor volume Day 3” value in assay [1] (vehicle 6.66 ± 1.48) is on record as 5.52 ± 1.10 cm^3. In addition, in assay [1] (vehicle 21.0 ± 3.0), the “Tumor volume Day 8” value came out at 11.3 ± 1.8 cm^3. In assay [1] (vehicle 37.3 ± 4.0), the “Tumor volume Day 13” value is 22.4 ± 2.7 cm^3. Moreover, the “Tumor volume Day 16” value in assay [1] (vehicle 58.7 ± 5.0) is recorded as 28.4 ± 5.1 cm^3. Also, the IC50 in the assay with Tsu-Pr1 is 70 nM.

The values are drawn from US5654427A, “Indolocarbazole derivatives to treat a pathological condition of the prostate” (Kyowa Hakko Kogyo Co., Ltd., priority 1995, dated 1997).
